Experimental data: article PMC8085067, “The dimer-monomer equilibrium of SARS-CoV-2 main protease is affected by small molecule inhibitors” (Scientific Reports, 2021)
Entries after “also recorded” stand apart in the source; their conditions may differ.

Biological target: SARS-CoV-2 M^pro (Severe acute respiratory syndrome coronavirus 2, UniProt P0DTD1)
Experiment: M^pro activity assay and inhibition (fluorogenic substrate)
Type: biochemical
Conditions: for inhibition of M^pro catalytic activity (in words) / slope m of the fluorescence inhibition curve: inhibitor 30 μM; for inhibition of M^pro catalytic activity (in words): fluorescence assay; for slope m of the fluorescence inhibition curve: ≈0.2 μM M^pro, 40 μM substrate, 30 °C, 20 min preincubation, linear fit up to 30 min

SMILES | Hill slope n (Hill equation fit of percent inhibition) | IC50 (Hill equation fit of percent inhibition vs inhibitor concentration) [µM] | inhibition of M^pro catalytic activity (in words) | slope m of the fluorescence inhibition curve
CCNC(=O)c1noc(-c2c(F)c(F)c(NCCN(CCNc3c(F)c(F)c(-c4nc(C(=O)NCC)no4)c(F)c3F)CCNc3c(F)c(F)c(-c4nc(C(=O)NCC)no4)c(F)c3F)c(F)c2F)n1 [Inhibitor 7, 5,5’,5”-(((nitrilotris(ethane-2,1-diyl))tris(azanediyl))tris(2,3,5,6-tetrafluorobenzene-4,1-diyl))tris(N-ethyl-1,2,4-oxadiazole-3-carboxamide)] | 3±1 | 15 ± 2 | irreversible inactivation of the enzyme; also recorded: promising inhibition effect | 1±3 RFU/min and ≈ 1 RFU/min
OCCN(CCOc1c(F)c(F)c(-c2nc(-c3ccncc3)no2)c(F)c1F)CCOc1c(F)c(F)c(-c2nc(-c3ccncc3)no2)c(F)c1F [Inhibitor 3] | – | – | week | 23±3 RFU/min
Fc1c(F)c(N2CCOCCOCCOCCOCCOCC2)c(F)c(F)c1-c1nc(-c2ccccc2)no1 [Inhibitor 4, 16-(2,3,5,6-tetrafluoro-4-(3-phenyl-1,2,4-oxadiazol-5-yl)phenyl)-1,4,7,10,13-pentaoxa-16-azacyclooctadecane] | – | – | irreversible inactivation of the enzyme; also recorded: most effective among the seven inhibitors | 0±6 RFU/min and ≈ 0 RFU/min
